Measurements taken from patent US10647713B2 (Nimbus Lakshmi, Inc., priority 2016, dated 2020).

These molecules were tested against human TYK2 (JH2domain-pseudokinase) (Homo sapiens (Human), UniProt P29597) (assay: TYK2 JH2 Domain Binding Assay (KINOMEscan, DiscoveRx)). Conditions: 11-point dilution, duplicate.
Summary of the method: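 Kd from duplicate 11-point 3-fold dilutions starting at 30,000 nM, fitted by Hill equation with slope fixed at −1. Compounds (final 0.9% DMSO) displace DNA-tagged HEK293-expressed TYK2 JH2 fusion (<0.1 nM) from ligand-coated beads over 1 h at room temperature; eluted kinase read by qPCR.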

Chain of human TYK2 (JH2domain-pseudokinase) (P29597 556-888): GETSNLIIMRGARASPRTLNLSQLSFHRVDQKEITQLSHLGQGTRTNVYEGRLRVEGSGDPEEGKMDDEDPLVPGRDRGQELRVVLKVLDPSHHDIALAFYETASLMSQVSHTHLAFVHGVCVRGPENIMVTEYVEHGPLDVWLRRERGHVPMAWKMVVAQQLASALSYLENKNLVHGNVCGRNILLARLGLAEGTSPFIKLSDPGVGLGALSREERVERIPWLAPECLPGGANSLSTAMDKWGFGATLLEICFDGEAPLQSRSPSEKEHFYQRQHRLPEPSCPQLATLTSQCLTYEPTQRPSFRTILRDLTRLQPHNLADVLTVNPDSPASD

Compound | Kd
CN(c1cc(-c2cnn(C)c2)ccc1Nc1cc(NC(=O)[C@H]2CC2(F)F)nc2[nH]c(C(F)F)nc12)S(C)(=O)=O [I-231, (R)—N-(2-(difluoromethyl)-7-((4-(1-methyl-1H-pyrazol-4-yl)-2-(N-methylmethylsulfonamido)phenyl)amino)-3H-imidazo[4,5-b]pyridin-5-yl)-2,2-difluorocyclopropane-1-carboxamide] | 1 to 10 nM
CS(=O)(=O)c1cc(C2CCOCC2)ccc1Nc1cc(NC(=O)C2CC2)nc2[nH]c(C(F)F)nc12 [I-232, N-(2-(difluoromethyl)-7-((2-(methylsulfonyl)-4-(tetrahydro-2H-pyran-4-yl)phenyl)amino)-3H-imidazo[4,5-b]pyridin-5-yl)cyclopropanecarboxamide] | 0.1 to 0.5 nM
Cc1nc2c(Nc3ccc(-c4cnn(C)c4)cc3N(C)S(C)(=O)=O)cc(NC(=O)[C@@H]3CC3(F)F)nc2[nH]1 [I-233, (S)-2,2-difluoro-N-(2-methyl-7-((4-(1-methyl-1H-pyrazol-4-yl)-2-(N-methylmethylsulfonamido)phenyl)amino)-3H-imidazo[4,5-b]pyridin-5-yl)cyclopropane-1-carboxamide] | 0.1 to 0.5 nM
Cc1nc2c(Nc3ccc(-c4cnn(C)c4)cc3N(C)S(C)(=O)=O)cc(NC(=O)[C@H]3CC3(F)F)nc2[nH]1 [I-234, (R)-2,2-difluoro-N-(2-methyl-7-((4-(1-methyl-1H-pyrazol-4-yl)-2-(N-methylmethylsulfonamido)phenyl)amino)-3H-imidazo[4,5-b]pyridin-5-yl)cyclopropane-1-carboxamide] | 1 to 10 nM
CN(c1cc(-c2cnn(C)c2)ccc1Nc1cc(NC(=O)[C@H]2C[C@H]2F)nc2[nH]c(C(F)F)nc12)S(C)(=O)=O [I-236, (1R, 2R)—N-(2-(difluoromethyl)-7-((4-(1-methyl-1H-pyrazol-4-yl)-2-(N-methylmethylsulfonamido)phenyl)amino)-3H-imidazo[4,5-b]pyridin-5-yl)-2-fluorocyclopropane-1-carboxamide] | 0.1 to 0.5 nM
Cn1ccc(-c2ccc(Nc3cc(NC(=O)[C@@H]4CC4(F)F)nc4[nH]c(C(F)F)nc34)c(S(C)(=O)=O)c2)n1 [I-237, (S)—N-(2-(difluoromethyl)-7-((4-(1-methyl-1H-pyrazol-3-yl)-2-(methylsulfonyl)phenyl)amino)-3H-imidazo[4,5-b]pyridin-5-yl)-2,2-difluorocyclopropane-1-carboxamide] | 0.5 to 1 nM
Cn1ccc(-c2ccc(Nc3cc(NC(=O)[C@H]4CC4(F)F)nc4[nH]c(C(F)F)nc34)c(S(C)(=O)=O)c2)n1 [I-238, (R)—N-(2-(difluoromethyl)-7-((4-(1-methyl-1H-pyrazol-3-yl)-2-(methylsulfonyl)phenyl)amino)-3H-imidazo[4,5-b]pyridin-5-yl)-2,2-difluorocyclopropane-1-carboxamide] | 1 to 10 nM
Cc1nc2c(Nc3ccc(-c4ccn(C)n4)cc3S(C)(=O)=O)cc(NC(=O)[C@@H]3CC3(F)F)nc2[nH]1 [I-239, (S)-2,2-difluoro-N-(2-methyl-7-((4-(1-methyl-1H-pyrazol-3-yl)-2-(methylsulfonyl)phenyl)amino)-3H-imidazo[4,5-b]pyridin-5-yl)cyclopropane-1-carboxamide] | 0.1 to 0.5 nM
Cc1nc2c(Nc3ccc(-c4ccn(C)n4)cc3S(C)(=O)=O)cc(NC(=O)[C@H]3CC3(F)F)nc2[nH]1 [I-240, (R)-2,2-difluoro-N-(2-methyl-7-((4-(1-methyl-1H-pyrazol-3-yl)-2-(methylsulfonyl)phenyl)amino)-3H-imidazo[4,5-b]pyridin-5-yl)cyclopropane-1-carboxamide] | 1 to 10 nM
Cc1nc2c(Nc3ccc(-c4nn(C)cc4C)cc3S(C)(=O)=O)cc(NC(=O)C3CC3)nc2[nH]1 [I-241, N-(7-((4-(1,4-dimethyl-1H-pyrazol-3-yl)-2-(methylsulfonyl)phenyl)amino)-2-methyl-3H-imidazo[4,5-b]pyridin-5-yl)cyclopropanecarboxamide] | < 0.1 nM
CP(C)(=O)c1ccccc1Nc1cc(NC(=O)C2CC2)nc2[nH]c(C(F)F)nc12 [I-242, N-(2-(difluoromethyl)-7-((2-(dimethylphosphoryl)phenyl)amino)-3H-imidazo[4,5-b]pyridin-5-yl)cyclopropanecarboxamide] | 0.5 to 1 nM
Cc1nc2c(Nc3ccccc3P(C)(C)=O)cc(NC(=O)C3CC3)nc2[nH]1 [I-243, N-(7-((2-(dimethylphosphoryl)phenyl)amino)-2-methyl-3H-imidazo[4,5-b]pyridin-5-yl)cyclopropanecarboxamide] | > 10 nM
Cn1cnc(-c2ccc(Nc3cc(NC(=O)[C@H]4CC4(F)F)nc4[nH]c(C(F)F)nc34)c(S(C)(=O)=O)c2)c1 [I-244, (R)—N-(2-(difluoromethyl)-7-((4-(1-methyl-1H-imidazol-4-yl)-2-(methylsulfonyl)phenyl)amino)-3H-imidazo[4,5-b]pyridin-5-yl)-2,2-difluorocyclopropane-1-carboxamide] | 0.5 to 1 nM
Cn1cnc(-c2ccc(Nc3cc(NC(=O)[C@@H]4CC4(F)F)nc4[nH]c(C(F)F)nc34)c(S(C)(=O)=O)c2)c1 [I-245, (S)—N-(2-(difluoromethyl)-7-((4-(1-methyl-1H-imidazol-4-yl)-2-(methylsulfonyl)phenyl)amino)-3H-imidazo[4,5-b]pyridin-5-yl)-2,2-difluorocyclopropane-1-carboxamide] | 1 to 10 nM
Cc1cn(C)nc1-c1ccc(Nc2cc(NC(=O)C3CC3)nc3[nH]c(C(F)F)nc23)c(S(C)(=O)=O)c1 [I-246, N-(2-(difluoromethyl)-7-((4-(1,4-dimethyl-1H-pyrazol-3-yl)-2-(methylsulfonyl)phenyl)amino)-3H-imidazo[4,5-b]pyridin-5-yl)cyclopropanecarboxamide] | < 0.1 nM
CS(=O)(=O)c1cc([C@@H]2CCCCO2)ccc1Nc1cc(NC(=O)C2CC2)nc2[nH]c(C(F)F)nc12 [I-247, (S)—N-(2-(difluoromethyl)-7-((2-(methylsulfonyl)-4-(tetrahydro-2H-pyran-2-yl)phenyl)amino)-3H-imidazo[4,5-b]pyridin-5-yl)cyclopropanecarboxamide] | 0.1 to 0.5 nM
CS(=O)(=O)c1cc([C@H]2CCCCO2)ccc1Nc1cc(NC(=O)C2CC2)nc2[nH]c(C(F)F)nc12 [I-248, (R)—N-(2-(difluoromethyl)-7-((2-(methylsulfonyl)-4-(tetrahydro-2H-pyran-2-yl)phenyl)amino)-3H-imidazo[4,5-b]pyridin-5-yl)cyclopropanecarboxamide] | < 0.1 nM
Cc1nc2c(Nc3ccccc3N(C(F)F)S(C)(=O)=O)cc(Nc3cccc(C#N)n3)nc2[nH]1 [I-249, N-(2-((5-((6-cyanopyridin-2-yl)amino)-2-methyl-3H-imidazo[4,5-b]pyridin-7-yl)amino)phenyl)-N-(difluoromethyl)methanesulfonamide] | 1 to 10 nM
Cc1nc2c(Nc3ccc(-c4cn(C)cn4)cc3S(C)(=O)=O)cc(NC(=O)[C@@H]3C[C@@H]3F)nc2[nH]1 [I-250, (1S,2S)-2-fluoro-N-(2-methyl-7-((4-(1-methyl-1H-imidazol-4-yl)-2-(methylsulfonyl)phenyl)amino)-3H-imidazo[4,5-b]pyridin-5-yl)cyclopropane-1-carboxamide] | < 0.1 nM
Cc1nc2c(Nc3ccc(-c4cn(C)cn4)cc3S(C)(=O)=O)cc(NC(=O)[C@H]3C[C@H]3F)nc2[nH]1 [I-251, (1R,2R)-2-fluoro-N-(2-methyl-7-((4-(1-methyl-1H-imidazol-4-yl)-2-(methylsulfonyl)phenyl)amino)-3H-imidazo[4,5-b]pyridin-5-yl)cyclopropane-1-carboxamide] | 0.1 to 0.5 nM
